Test results reported in PMC7689791 (Journal of Clinical Pharmacology, 2020).
Where “and” joins values, the source holds several entries; their conditions need not be identical. Identical values can stand only once. Like-named read-outs stand apart in the source and are kept apart here.

Key:
[1] = Observed incidence of treatment-emergent adverse events in clinical studies
[2] = Logistic regression exposure-response analysis of TEAE probability; settings: for Headache TEAE probability / Influenza TEAE probability / Nasopharyngitis TEAE probability / Somnolence TEAE probability / Upper Respiratory Tract Infection TEAE probability / Urinary Tract Infection TEAE probability: person
[3] = Model-predicted / simulated lemborexant exposure across covariates; design: species or system human
[4] = cited from earlier work
[5] = coadministration with famotidine; cited from earlier work
[6] = cited from earlier work; remark: listed apart in the source
[7] = tested on: CYP3A; settings: stand-alone DDI studies and PBPK modeling; cited from earlier work
[8] = study 201, 15-day treatment, cited from earlier work
[9] = Population PK final model; assay type: in vivo, human
[10] = studies 202, 303, 304, 5 to 15 mg
[11] = 5 mg, 5th quantile, Cav,ss 6.30 ng/mL
[12] = 5 mg, 25th quantile, Cav,ss 7.90 ng/mL
[13] = 5 mg, 50th quantile, Cav,ss 10.00 ng/mL
[14] = 5 mg, 75th quantile, Cav,ss 14.00 ng/mL
[15] = 5 mg, 95th quantile, Cav,ss 19.00 ng/mL
[16] = 10 mg, 5th quantile, Cav,ss 12.00 ng/mL
[17] = 10 mg, 25th quantile, Cav,ss 17.00 ng/mL
[18] = 10 mg, 50th quantile, Cav,ss 21.00 ng/mL
[19] = 10 mg, 75th quantile, Cav,ss 27.00 ng/mL
[20] = 10 mg, 95th quantile, Cav,ss 37.00 ng/mL
[21] = oral [14C]lemborexant, healthy subjects, ref study E2006-A001-007, NCT02046213

Cc1ncc(OC[C@@]2(c3cccc(F)c3)C[C@H]2C(=O)Nc2ccc(F)cn2)c(C)n1 [Lemborexant]
Somnolence rate, treatment ([1]; 9-month SUNRISE 2 study): 11% | Nasopharyngitis frequency, active treatment [1, 10]: 8.6% | Upper respiratory tract infection frequency, active treatment [1, 10]: 3.2% | Urinary tract infection frequency, active treatment [1, 10]: 2.5% | Somnolence rate, treatment ([1]; study 202): 6% | Headache TEAE probability [2, 11]: 11.0 (7.8‐14.0) | Influenza TEAE probability [2, 11]: 3.8 (2.3‐6.2) | Nasopharyngitis TEAE probability [2, 11]: 10.0 (7.5‐14.0) | Somnolence TEAE probability [2, 11]: 7.2 (5.3‐9.7) | Upper Respiratory Tract Infection TEAE probability [2, 11]: 4.7 (2.9‐7.3) | Urinary Tract Infection TEAE probability [2, 11]: 2.0 (1.2‐3.5) | Headache TEAE probability [2, 12]: 9.8 (7.6‐13.0) | Influenza TEAE probability [2, 12]: 3.6 (2.3‐5.5) | Nasopharyngitis TEAE probability [2, 12]: 9.5 (7.3‐12.0) | Somnolence TEAE probability [2, 12]: 7.4 (5.7‐9.7) | Upper Respiratory Tract Infection TEAE probability [2, 12]: 4.4 (2.9‐6.4) | Urinary Tract Infection TEAE probability [2, 12]: 2.1 (1.3‐3.5) | Headache TEAE probability [2, 13]: 9.2 (7.3‐11.0) | Influenza TEAE probability [2, 13]: 3.4 (2.3‐4.9) | Nasopharyngitis TEAE probability [2, 13]: 8.9 (7.1‐11.0) | Somnolence TEAE probability [2, 13]: 7.7 (6.1‐9.7) | Upper Respiratory Tract Infection TEAE probability [2, 13]: 4.1 (2.9‐5.7) | Urinary Tract Infection TEAE probability [2, 13]: 2.3 (1.4‐3.5) | Headache TEAE probability [2, 14]: 8.3 (6.8‐10.0) | Influenza TEAE probability [2, 14]: 3.1 (2.2‐4.3) | Nasopharyngitis TEAE probability [2, 14]: 8.1 (6.6‐9.8) | Somnolence TEAE probability [2, 14]: 8.1 (6.6‐9.9) | Upper Respiratory Tract Infection TEAE probability [2, 14]: 3.6 (2.7‐4.9) | Urinary Tract Infection TEAE probability [2, 14]: 2.5 (1.7‐3.6) | Headache TEAE probability [2, 15]: 6.8 (5.3‐8.6) | Influenza TEAE probability [2, 15]: 2.6 (1.8‐3.9) | Nasopharyngitis TEAE probability [2, 15]: 6.7 (5.2‐8.6) | Somnolence TEAE probability [2, 15]: 8.9 (7.3‐11.0) | Upper Respiratory Tract Infection TEAE probability [2, 15]: 3.0 (2.0‐4.3) | Urinary Tract Infection TEAE probability [2, 15]: 2.9 (2.0‐4.1) | Headache TEAE probability [2, 16]: 9.2 (7.4‐12.0) | Influenza TEAE probability [2, 16]: 3.4 (2.3‐4.9) | Nasopharyngitis TEAE probability [2, 16]: 8.9 (7.1‐11.0) | Somnolence TEAE probability [2, 16]: 7.7 (6.0‐9.7) | Upper Respiratory Tract Infection TEAE probability [2, 16]: 4.1 (2.9‐5.7) | Urinary Tract Infection TEAE probability [2, 16]: 2.2 (1.4‐3.5) | Headache TEAE probability [2, 17]: 7.7 (6.3‐9.4) | Influenza TEAE probability [2, 17]: 2.9 (2.1‐4.1) | Nasopharyngitis TEAE probability [2, 17]: 7.6 (6.2‐9.3) | Somnolence TEAE probability [2, 17]: 8.4 (6.9‐10.0) | Upper Respiratory Tract Infection TEAE probability [2, 17]: 3.4 (2.5‐4.6) | Urinary Tract Infection TEAE probability [2, 17]: 2.6 (1.8‐3.7) | Headache TEAE probability [2, 18]: 6.8 (5.3‐8.6) | Influenza TEAE probability [2, 18]: 2.6 (1.8‐3.9) | Nasopharyngitis TEAE probability [2, 18]: 6.7 (5.2‐8.6) | Somnolence TEAE probability [2, 18]: 8.9 (7.3‐11.0) | Upper Respiratory Tract Infection TEAE probability [2, 18]: 3.0 (2.0‐4.3) | Urinary Tract Infection TEAE probability [2, 18]: 2.9 (2.0‐4.0) | Headache TEAE probability [2, 19]: 5.7 (4.0‐8.1) | Influenza TEAE probability [2, 19]: 2.3 (1.3‐4.0) | Nasopharyngitis TEAE probability [2, 19]: 5.8 (4.0‐8.1) | Somnolence TEAE probability [2, 19]: 9.6 (7.6‐12.0) | Upper Respiratory Tract Infection TEAE probability [2, 19]: 2.5 (1.5‐4.3) | Urinary Tract Infection TEAE probability [2, 19]: 3.3 (2.2‐4.9) | Headache TEAE probability [2, 20]: 3.9 (2.0‐7.4) | Influenza TEAE probability [2, 20]: 1.7 (0.6‐4.7) | Nasopharyngitis TEAE probability [2, 20]: 4.0 (2.1‐7.7) | Somnolence TEAE probability [2, 20]: 11.0 (7.5‐17.0) | Upper Respiratory Tract Infection TEAE probability [2, 20]: 1.7 (0.6‐4.6) | Urinary Tract Infection TEAE probability [2, 20]: 4.4 (2.2‐8.7) | Cav,ss as linear predictor of the probability of specific TEAEs (somnolence, nasopharyngitis, flu/influenza, urinary tract infection, upper respiratory tract infection, headache) ([2]; with and without adjustment for age): not a clinically meaningful linear predictor | Higher exposure for high ALP ([3]; ALP 150 U/L, relative to population average): 9% | Lower exposure for underweight ([3]; BMI 15 kg/m^2, relative to typical subject with normal BMI): 25% | Higher exposure for class 1 obesity ([3]; BMI 32 kg/m^2, relative to typical subject with normal BMI): 11% | Exposure elevation in high ALP subjects ([3]; high ALP): 8% | Exposure elevation in obese subjects ([3]; high BMI): up to 20% | Higher CL/F for ALP at the upper range of normal over the typical subject ([3]; model prediction): 7% | Higher exposure in the elderly ([3]; model prediction, relative to population average / adult insomnia population): 26% | Fraction of the dose bioavailable [4, 21]: at least 87% | Unchanged lemborexant in feces [4, 21]: 13.0% | Unchanged lemborexant in urine [4, 21]: not detected | Administered dose recovered as unchanged drug in urine ([4]; single ascending-dose study, ref study 001, NCT01463098): < 1% | Decrease in lemborexant Cmax [5]: 27% | Delay in the median tmax [5]: 30 min | Effect on lemborexant AUC0-t and AUC0-inf [5]: no significant effect | calculated logP [6]: 3.2 | Interaction with moderate and strong CYP3A inhibitors [7]: clinically meaningful interaction | Somnolence frequency ([8]; 1-mg group): 3.1% | Somnolence frequency ([8]; 25-mg group): 22.0% | Cav,ss ([9]; 5 mg, 5th quantile of Cav,ss): 6.30 ng/mL | Cav,ss ([9]; 5 mg, 25th quantile of Cav,ss): 7.90 ng/mL | Cav,ss ([9]; 5 mg, 50th quantile of Cav,ss): 10.00 ng/mL | Cav,ss ([9]; 5 mg, 75th quantile of Cav,ss): 14.00 ng/mL | Cav,ss ([9]; 5 mg, 95th quantile of Cav,ss): 19.00 ng/mL | Cav,ss ([9]; 10 mg, 5th quantile of Cav,ss): 12.00 ng/mL | Cav,ss ([9]; 10 mg, 25th quantile of Cav,ss): 17.00 ng/mL | Cav,ss ([9]; 10 mg, 50th quantile of Cav,ss): 21.00 ng/mL | Cav,ss ([9]; 10 mg, 75th quantile of Cav,ss): 27.00 ng/mL | Cav,ss ([9]; 10 mg, 95th quantile of Cav,ss): 37.00 ng/mL | Accumulation ratio ([9]; bedtime once-daily dosing): 1.9 | Effect size of age covariate on CL/F ([9]; elderly (>65 years old) versus adults, univariate forward addition): 126% | Oral clearance lower in the elderly ([9]; elderly (≥65 years)): 26% | CL/F, elderly (categorical covariate factor) ([9]; final model estimate): 0.739 | Interindividual variability CL/F ([9]; final model estimate): 48.1 %CV | Interindividual variability Q3/F ([9]; final model estimate): 56.8 %CV | Interindividual variability Q4/F ([9]; final model estimate): 46.5 %CV | Interindividual variability V2/F ([9]; final model estimate): 142 %CV | Interindividual variability V3/F ([9]; final model estimate): 82.0 %CV | Interindividual variability V4/F ([9]; final model estimate): 41.4 %CV | Q3/F ([9]; final model estimate): 32.1 L/h | Q4/F ([9]; final model estimate): 31.0 L/h | Residual variability, additive (TAD >3 h) ([9]; final model estimate): 0.0189 ng/mL | Residual variability, additive (TAD ≤3 h) ([9]; final model estimate): 2.62 ng/mL | Residual variability, proportional (TAD > 3 h) ([9]; final model estimate): 14.3 % CV | Residual variability, proportional (TAD ≤ 3 h) ([9]; final model estimate): 32.9 % CV | V2/F ([9]; final model estimate): 9.09 L | V3/F ([9]; final model estimate): 278 L | V4/F ([9]; final model estimate): 783 L | CL/F ([9]; final model estimate, typical subject): 23 L/h and 22.7 L/h | CL/F ([9]; final model, bootstrap median): 23.7 L/h | CL/F, elderly (categorical covariate factor) ([9]; final model, bootstrap median): 0.713 | Interindividual variability CL/F ([9]; final model, bootstrap median): 46.8 %CV | Interindividual variability Q3/F ([9]; final model, bootstrap median): 42.6 %CV | Interindividual variability Q4/F ([9]; final model, bootstrap median): 52.0 %CV | Interindividual variability V2/F ([9]; final model, bootstrap median): 131 %CV | Interindividual variability V3/F ([9]; final model, bootstrap median): 66.1 %CV | Interindividual variability V4/F ([9]; final model, bootstrap median): 38.3 %CV | Q3/F ([9]; final model, bootstrap median): 33.0 L/h | Q4/F ([9]; final model, bootstrap median): 30.1 L/h | Residual variability, additive (TAD >3 h) ([9]; final model, bootstrap median): 0.0203 ng/mL | Residual variability, additive (TAD ≤3 h) ([9]; final model, bootstrap median): 2.46 ng/mL | Residual variability, proportional (TAD > 3 h) ([9]; final model, bootstrap median): 14.3 % CV | Residual variability, proportional (TAD ≤ 3 h) ([9]; final model, bootstrap median): 33.2 % CV | V2/F ([9]; final model, bootstrap median): 11.4 L | V3/F ([9]; final model, bootstrap median): 289 L | V4/F ([9]; final model, bootstrap median): 779 L | ALAG1 ([9]; final model, fixed): 0.403 h | D1, capsule ([9]; final model, fixed): 0.467 h | D1, nighttime dosing (covariate factor) ([9]; final model, fixed): 2.33 | D1, tablet (covariate factor) ([9]; final model, fixed): 0.254 | F1, food (covariate factor) ([9]; final model, fixed): 1.21 | Interindividual variability D1 ([9]; final model, fixed): 167 %CV | Interindividual variability F1 ([9]; final model, fixed): 68.1 %CV | Interindividual variability Ka ([9]; final model, fixed): 43.8 %CV | Ka, capsule ([9]; final model, fixed): 0.532 h⁻¹ | Ka, food (covariate factor) ([9]; final model, fixed): 0.695 | Ka, tablet (covariate factor) ([9]; final model, fixed): 1.12 | Contribution of beta half-life to total dispositional AUC ([9]; from microrate constants): 0.2% | Contribution of gamma half-life to total dispositional AUC ([9]; from microrate constants): 0.4% | Fraction of alpha disposition phase of total disposition AUC ([9]; from microrate constants): 99.4%
